Where two headings read alike, the source gives them in different places.
Assays:
BRG-1 = molecular target: T1, BRG-1 (Homo sapiens, UniProt P51532); test: ATPase catalytic activity of BRG-1, ADP-Glo in vitro biochemical assay; conditions: 30 nM BRG-1, 400 μM ATP, read-out: BRG1 IC50
T1 construct: made in house; host or cells: High Five insect cells
Outline: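 Signal reflects ADP produced by the enzyme, quantified as luminescence after unused ATP is cleared and ADP is reconverted to ATP for the luciferase reaction; both steps run at room temperature, 40 and 60 min respectively.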

BRM = molecular target: T2, BRM (Homo sapiens, UniProt P51531); test: ATPase catalytic activity of BRM, ADP-Glo in vitro biochemical assay; conditions: for IC50: 30 nM BRM, 400 μM ATP; for Ratio* (BRG1 IC50 (μM) divided by BRM IC50 (μM)): selectivity ratio BRG1 IC50 / BRM IC50
T2 construct: made in house; host or cells: High Five insect cells
Outline: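 Recombinant BRM (30 nM) hydrolysed 400 μM ATP with 20 nM salmon sperm DNA in pH 8 Tris buffer containing 20 mM MgCl2, 50 mM NaCl, 0.1% Tween-20 and 1 mM DTT, 1 h at room temperature. ADP formed was quantified by ADP-Glo luminescence.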

[1] = ATPase catalytic activity, ADP-Glo

T2 sequence (P51531 whole entry): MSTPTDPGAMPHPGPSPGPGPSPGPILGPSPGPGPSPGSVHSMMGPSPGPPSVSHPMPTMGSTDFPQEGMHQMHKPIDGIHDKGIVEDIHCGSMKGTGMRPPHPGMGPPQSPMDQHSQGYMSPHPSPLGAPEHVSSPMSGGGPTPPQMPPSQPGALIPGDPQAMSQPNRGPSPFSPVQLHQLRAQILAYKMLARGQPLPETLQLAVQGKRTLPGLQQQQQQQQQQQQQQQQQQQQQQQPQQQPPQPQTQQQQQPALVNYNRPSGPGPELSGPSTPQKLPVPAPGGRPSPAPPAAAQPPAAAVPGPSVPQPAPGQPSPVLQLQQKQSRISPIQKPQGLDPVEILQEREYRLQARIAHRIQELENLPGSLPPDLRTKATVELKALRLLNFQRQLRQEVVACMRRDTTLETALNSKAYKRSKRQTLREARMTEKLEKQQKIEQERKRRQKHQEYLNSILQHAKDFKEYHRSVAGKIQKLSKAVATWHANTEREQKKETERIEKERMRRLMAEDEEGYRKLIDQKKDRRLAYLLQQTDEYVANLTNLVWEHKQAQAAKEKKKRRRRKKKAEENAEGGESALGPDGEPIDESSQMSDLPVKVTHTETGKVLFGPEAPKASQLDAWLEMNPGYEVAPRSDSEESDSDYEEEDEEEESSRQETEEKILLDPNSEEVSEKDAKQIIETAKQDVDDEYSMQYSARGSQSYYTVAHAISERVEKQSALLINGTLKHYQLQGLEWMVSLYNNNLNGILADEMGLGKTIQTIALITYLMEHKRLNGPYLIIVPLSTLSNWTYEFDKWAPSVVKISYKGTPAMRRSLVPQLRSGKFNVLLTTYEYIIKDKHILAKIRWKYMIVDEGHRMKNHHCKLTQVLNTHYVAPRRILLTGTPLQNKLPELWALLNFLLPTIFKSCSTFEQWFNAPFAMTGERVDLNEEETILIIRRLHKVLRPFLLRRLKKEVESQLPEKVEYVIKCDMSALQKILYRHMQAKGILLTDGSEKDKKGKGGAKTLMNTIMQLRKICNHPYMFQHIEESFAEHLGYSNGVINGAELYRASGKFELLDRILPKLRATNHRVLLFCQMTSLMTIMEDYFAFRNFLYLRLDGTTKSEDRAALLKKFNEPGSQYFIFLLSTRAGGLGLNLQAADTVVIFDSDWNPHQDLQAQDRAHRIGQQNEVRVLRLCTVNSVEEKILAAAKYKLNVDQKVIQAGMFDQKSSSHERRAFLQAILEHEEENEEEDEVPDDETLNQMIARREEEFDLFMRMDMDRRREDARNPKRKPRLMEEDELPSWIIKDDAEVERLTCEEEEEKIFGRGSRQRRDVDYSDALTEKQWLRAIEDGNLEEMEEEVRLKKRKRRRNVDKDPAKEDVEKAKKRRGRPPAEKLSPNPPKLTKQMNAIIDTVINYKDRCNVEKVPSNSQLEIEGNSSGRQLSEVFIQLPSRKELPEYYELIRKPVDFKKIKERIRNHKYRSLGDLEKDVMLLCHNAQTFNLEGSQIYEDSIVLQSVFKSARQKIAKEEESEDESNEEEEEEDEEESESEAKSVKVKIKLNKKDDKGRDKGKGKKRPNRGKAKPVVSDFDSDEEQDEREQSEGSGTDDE
T1 sequence (P51532 whole entry): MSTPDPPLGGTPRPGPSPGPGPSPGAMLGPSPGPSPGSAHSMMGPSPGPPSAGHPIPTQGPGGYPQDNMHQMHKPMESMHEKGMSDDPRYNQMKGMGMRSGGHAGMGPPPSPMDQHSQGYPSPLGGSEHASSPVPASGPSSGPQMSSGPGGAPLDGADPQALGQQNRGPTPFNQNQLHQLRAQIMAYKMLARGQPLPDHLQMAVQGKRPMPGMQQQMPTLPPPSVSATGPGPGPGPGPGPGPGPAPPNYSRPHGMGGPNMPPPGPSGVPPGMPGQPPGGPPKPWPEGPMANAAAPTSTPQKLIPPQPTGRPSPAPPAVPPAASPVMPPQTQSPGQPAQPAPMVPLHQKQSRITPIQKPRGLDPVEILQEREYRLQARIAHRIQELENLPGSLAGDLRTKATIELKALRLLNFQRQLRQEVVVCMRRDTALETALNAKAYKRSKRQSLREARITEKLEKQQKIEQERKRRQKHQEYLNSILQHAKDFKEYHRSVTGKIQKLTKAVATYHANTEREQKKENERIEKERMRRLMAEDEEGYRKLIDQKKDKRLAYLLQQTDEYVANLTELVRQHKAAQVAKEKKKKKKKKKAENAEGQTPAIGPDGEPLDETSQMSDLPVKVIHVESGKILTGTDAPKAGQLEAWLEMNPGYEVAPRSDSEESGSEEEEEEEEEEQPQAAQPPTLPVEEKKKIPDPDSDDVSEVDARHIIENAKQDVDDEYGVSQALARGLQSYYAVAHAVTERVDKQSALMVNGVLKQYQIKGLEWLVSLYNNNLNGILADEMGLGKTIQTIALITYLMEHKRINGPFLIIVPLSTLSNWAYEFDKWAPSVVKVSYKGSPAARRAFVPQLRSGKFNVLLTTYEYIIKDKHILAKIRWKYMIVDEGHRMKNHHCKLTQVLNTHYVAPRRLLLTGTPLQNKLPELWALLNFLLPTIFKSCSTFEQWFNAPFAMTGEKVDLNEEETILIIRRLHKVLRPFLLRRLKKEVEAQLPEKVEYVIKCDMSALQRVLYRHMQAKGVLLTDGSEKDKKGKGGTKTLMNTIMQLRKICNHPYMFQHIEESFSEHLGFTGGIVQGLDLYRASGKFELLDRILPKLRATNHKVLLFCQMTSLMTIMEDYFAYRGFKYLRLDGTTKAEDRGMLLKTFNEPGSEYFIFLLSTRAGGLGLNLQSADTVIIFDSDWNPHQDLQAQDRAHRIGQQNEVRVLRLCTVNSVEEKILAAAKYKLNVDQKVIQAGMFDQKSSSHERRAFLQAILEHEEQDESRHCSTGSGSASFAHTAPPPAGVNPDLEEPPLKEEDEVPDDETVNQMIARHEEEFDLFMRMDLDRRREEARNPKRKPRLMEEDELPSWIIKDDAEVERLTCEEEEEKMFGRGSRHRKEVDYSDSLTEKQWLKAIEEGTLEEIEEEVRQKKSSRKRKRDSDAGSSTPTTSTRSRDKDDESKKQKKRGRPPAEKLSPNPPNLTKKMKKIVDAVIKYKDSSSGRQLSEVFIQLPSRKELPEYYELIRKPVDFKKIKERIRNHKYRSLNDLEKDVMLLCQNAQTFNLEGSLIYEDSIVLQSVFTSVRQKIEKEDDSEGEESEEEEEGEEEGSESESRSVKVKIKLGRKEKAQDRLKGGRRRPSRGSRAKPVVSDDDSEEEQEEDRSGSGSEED

## C[C@@H]1CN(c2cccc(-c3ccc4cnc(CNC(=O)c5cc(F)c(C(F)F)c(S(C)(=O)=O)c5)cc4n3)n2)C[C@H](C)O1 [Compound 147]
BRG-1; ADP-Glo ATPase assay
  IC50: 394 nM
BRM; ADP-Glo ATPase assay
  IC50: 15.6 nM
BRM
  Ratio* (BRG1 IC50 (μM) divided by BRM IC50 (μM)): 25.22

## C[C@@H]1CN(c2cccc(-c3ccc4cnc(CNC(=O)c5ccc6c(c5)S(=O)(=O)CC[C@H](C)O6)cc4n3)n2)C[C@H](C)O1 [Compound 418]
BRG-1; [1]
  IC50: 193 nM
BRM; [1]
  IC50: 13.6 nM
BRM; ratio of BRG1 IC50 to BRM IC50
  Ratio*: 14.19

## C[C@@H]1CN(c2cccc(-c3ccc4cnc(CNC(=O)c5ccc6c(c5)S(=O)(=O)[C@@H](C)COC6)cc4n3)n2)C[C@H](C)O1 [Compound 155]
BRG-1; ADP-Glo ATPase assay
  IC50: 25.2 nM
BRM; ADP-Glo ATPase assay
  IC50: 4.5 nM
BRM
  Ratio* (BRG1 IC50 (μM) divided by BRM IC50 (μM)): 5.59

## O=C(NCc1cc2nc(N3CCCc4ccc(C(F)(F)F)nc43)ccc2cn1)c1ccc2c(c1)S(=O)(=O)CCOC2 [Compound 570]
BRG-1; [1]
  IC50: 557 nM
BRM; [1]
  IC50: 66.9 nM
BRM; ratio of BRG1 IC50 to BRM IC50
  Ratio*: 8.32

## COCCS(=O)(=O)c1cc(C(=O)NCc2cc3nc(-c4cncc(C5CC5)n4)ccc3cn2)ccc1Cl [Compound 238]
BRG-1; ADP-Glo ATPase assay
  IC50: 5000 nM
BRM; ADP-Glo ATPase assay
  IC50: 261 nM
BRM
  Ratio* (BRG1 IC50 (μM) divided by BRM IC50 (μM)): 19.12

## O=C(NCc1cc2nc(-c3cccc(C4CC4)n3)cnc2cn1)c1ccc2c(c1)S(=O)(=O)CCOC2 [Compound 191]
BRG-1; ADP-Glo ATPase assay
  IC50: 1180 nM
BRM; ADP-Glo ATPase assay
  IC50: 60.1 nM
BRM
  Ratio* (BRG1 IC50 (μM) divided by BRM IC50 (μM)): 19.73

## CC(F)(F)CN1CCOc2c(-c3ccc4cnc(CNC(=O)c5ccc6c(c5)S(=O)(=O)CCOC6)cc4n3)cccc21 [Compound 479]
BRG-1; [1]
  IC50: 189 nM
BRM; [1]
  IC50: 48.3 nM
BRM; ratio of BRG1 IC50 to BRM IC50
  Ratio*: 3.92

## COCc1cc2c(nc1C)N(c1ccc3cnc(CNC(=O)c4ccc5c(c4)S(=O)(=O)CCOC5)cc3n1)CCC2 [Compound 590]
BRG-1; [1]
  IC50: 177 nM
BRM; [1]
  IC50: 22.4 nM
BRM; ratio of BRG1 IC50 to BRM IC50
  Ratio*: 7.93

## Cc1ccc2c(n1)N(c1ccc3cnc(CNC(=O)c4ccc5c(c4)S(=O)(=O)CCOC5)cc3n1)CCC2 [Compound 315]
BRG-1; [1]
  IC50: 340 nM
BRM; [1]
  IC50: 18.4 nM
BRM; ratio of BRG1 IC50 to BRM IC50
  Ratio*: 18.47

## C[C@@H]1CN(c2cccc(-c3cnc4cnc(CNC(=O)c5ccc6c(c5)S(=O)(=O)CCOC6)cc4n3)c2)C[C@H](C)O1 [Compound 141]
BRG-1; ADP-Glo ATPase assay
  IC50: 169 nM
BRM; ADP-Glo ATPase assay
  IC50: 13 nM
BRM
  Ratio* (BRG1 IC50 (μM) divided by BRM IC50 (μM)): 12.97

## O=C(NCc1cc2nc(-c3cncc(C4CC4)n3)ccc2cn1)c1cnc2c(c1)S(=O)(=O)CCCC2(F)F [Compound 434]
BRG-1; [1]
  IC50: 1590 nM
BRM; [1]
  IC50: 118 nM
BRM; ratio of BRG1 IC50 to BRM IC50
  Ratio*: 13.52

## O=C(NCc1cc2nc(N3CCc4cccnc43)ccc2cn1)c1ccc2c(c1)S(=O)(=O)CCOC2 [Compound 47]
BRG-1; ADP-Glo ATPase assay
  IC50: 457 nM
BRM; ADP-Glo ATPase assay
  IC50: 74.5 nM
BRM
  Ratio* (BRG1 IC50 (μM) divided by BRM IC50 (μM)): 6.12

## Cc1ccc2c(c1)OCCN2c1ccc2cnc(CNC(=O)c3ccc4c(c3)S(=O)(=O)CCOC4)cc2n1 [Compound 420]
BRG-1; [1]
  IC50: 42.6 nM
BRM; [1]
  IC50: 4.2 nM
BRM; ratio of BRG1 IC50 to BRM IC50
  Ratio*: 10.13

## O=C(NCc1cc2nc(-c3cccc(N4CCC4)n3)ccc2nn1)c1ccc2c(c1)S(=O)(=O)CCOC2 [Compound 57]
BRG-1; ADP-Glo ATPase assay
  IC50: 118 nM
BRM; ADP-Glo ATPase assay
  IC50: 8 nM

## O=C(NCc1cc2nc(-c3ccc(Cl)c(OC(F)F)n3)ccc2cn1)c1ccc2c(c1)S(=O)(=O)CCOC2 [Compound 327]
BRG-1; [1]
  IC50: 291 nM
BRM; [1]
  IC50: 19.2 nM
BRM; ratio of BRG1 IC50 to BRM IC50
  Ratio*: 15.15

## CN(c1cccc(-c2ccc3cnc(CNC(=O)c4ccc5c(c4)S(=O)(=O)CCOC5)cc3n2)n1)C1CCOCC1 [Compound 174]
BRG-1; ADP-Glo ATPase assay
  IC50: 266 nM
BRM; ADP-Glo ATPase assay
  IC50: 28.8 nM
BRM
  Ratio* (BRG1 IC50 (μM) divided by BRM IC50 (μM)): 9.24

## COc1ccc2c(c1)N(c1ccc3cnc(CNC(=O)c4ccc5c(c4)S(=O)(=O)CCOC5)cc3n1)CCC2 [Compound 539]
BRG-1; [1]
  IC50: 153 nM
BRM; [1]
  IC50: 12.2 nM
BRM; ratio of BRG1 IC50 to BRM IC50
  Ratio*: 12.53

## O=C(NCc1cc2nc(-c3cccc4c3OCO4)ccc2cn1)c1ccc2c(c1)S(=O)(=O)CCOC2 [Compound 229]
BRG-1; ADP-Glo ATPase assay
  IC50: 1520 nM
BRM; ADP-Glo ATPase assay
  IC50: 119 nM
BRM
  Ratio* (BRG1 IC50 (μM) divided by BRM IC50 (μM)): 12.81

## COCc1ccc(C(=O)NCc2cc3nc(-c4cncc(C5CC5)n4)ccc3cn2)cc1S(C)(=O)=O [Compound 273]
BRG-1; ADP-Glo ATPase assay
  IC50: 2800 nM
BRM; ADP-Glo ATPase assay
  IC50: 119 nM
BRM
  Ratio* (BRG1 IC50 (μM) divided by BRM IC50 (μM)): 23.47

## C[C@]1(c2cccc(-c3ccc4cnc(CNC(=O)c5ccc6c(c5)S(=O)(=O)CCOC6)cc4n3)n2)CC1(F)F [Compound 219]
BRG-1; ADP-Glo ATPase assay
  IC50: 1230 nM
BRM; ADP-Glo ATPase assay
  IC50: 136 nM
BRM
  Ratio* (BRG1 IC50 (μM) divided by BRM IC50 (μM)): 9.05

## CS(=O)(=O)c1cc(F)cc(C(=O)NCc2cc3nc(-c4cncc(C5CC5)n4)ccc3cn2)c1 [Compound 295]
BRG-1; ADP-Glo ATPase assay
  IC50: 5000 nM
BRM; ADP-Glo ATPase assay
  IC50: 385 nM
BRM
  Ratio* (BRG1 IC50 (μM) divided by BRM IC50 (μM)): 12.98

## C[C@@H]1CN(c2cncc(-c3ccc4cnc(CNC(=O)c5ccc(C(F)F)c(S(C)(=O)=O)c5)cc4n3)n2)C[C@H](C)O1 [Compound 163]
BRG-1; ADP-Glo ATPase assay
  IC50: 264 nM
BRM; ADP-Glo ATPase assay
  IC50: 20.8 nM
BRM
  Ratio* (BRG1 IC50 (μM) divided by BRM IC50 (μM)): 12.71

## O=C(NCc1cc2nc(N3CCCc4cc(C(F)F)cnc43)ccc2cn1)c1ccc2c(c1)S(=O)(=O)CCOC2 [Compound 473]
BRG-1; [1]
  IC50: 147 nM
BRM; [1]
  IC50: 10.9 nM
BRM; ratio of BRG1 IC50 to BRM IC50
  Ratio*: 13.46

## C[C@@H]1CN(c2cccc(-c3ccc4cnc(CNC(=O)c5ccc(C(F)F)c(S(C)(=O)=O)c5)cc4n3)n2)C[C@@H](C)O1 [Compound 158]
BRG-1; ADP-Glo ATPase assay
  IC50: 262 nM
BRM; ADP-Glo ATPase assay
  IC50: 13.1 nM
BRM
  Ratio* (BRG1 IC50 (μM) divided by BRM IC50 (μM)): 20.03

## COC[C@@H](C)Oc1ccc2c(c1)N(c1ccc3cnc(CNC(=O)c4ccc5c(c4)S(=O)(=O)CCOC5)cc3n1)CCC2 [Compound 696]
BRG-1; [1]
  IC50: 128 nM
BRM; [1]
  IC50: 6.8 nM
BRM; ratio of BRG1 IC50 to BRM IC50
  Ratio*: 18.76

## CC1(c2ccc3c(n2)N(c2ccc4cnc(CNC(=O)c5ccc6c(c5)S(=O)(=O)CCOC6)cc4n2)CCO3)CC1 [Compound 713]
BRG-1; ADP-Glo ATPase assay
  IC50: 987 nM
BRM; ADP-Glo ATPase assay
  IC50: 45.9 nM
BRM; ratio BRG1 IC50 / BRM IC50
  Ratio*: 21.51

## COc1cc2c(cc1F)CCCN2c1ccc2cnc(CNC(=O)c3ccc4c(c3)S(=O)(=O)CCOC4)cc2n1 [Compound 714]
BRG-1; ADP-Glo ATPase assay
  IC50: 667 nM
BRM; ADP-Glo ATPase assay
  IC50: 54.9 nM

## Cc1cnc2c(c1)OCCN2c1ccc2cnc(CNC(=O)c3cc(Cl)c4c(c3)S(=O)(=O)CCOC4)cc2n1 [Compound 552]
BRG-1; [1]
  IC50: 190 nM
BRM; [1]
  IC50: 9.8 nM
BRM; ratio of BRG1 IC50 to BRM IC50
  Ratio*: 19.48

## O=C(NCc1cc2nc(N3CCCc4cccc(Cl)c43)ccc2cn1)c1ccc2c(c1)S(=O)(=O)CCOC2 [Compound 736]
BRG-1; ADP-Glo ATPase assay
  IC50: 3900 nM
BRM; ADP-Glo ATPase assay
  IC50: 1140 nM
BRM; ratio BRG1 IC50 / BRM IC50
  Ratio*: 3.42

## C[C@@H]1CN(c2cccc(-c3ccc4cnc(CNC(=O)c5ccc6c(c5)S(=O)(=O)CCCN6C)cc4n3)n2)C[C@H](C)O1 [Compound 415]
BRG-1; [1]
  IC50: 494 nM
BRM; [1]
  IC50: 20.6 nM
BRM; ratio of BRG1 IC50 to BRM IC50
  Ratio*: 23.93

## C[C@@H]1CN(c2cccc(-c3ccc4cnc(CNC(=O)c5cc(F)c6c(c5)S(=O)(=O)CCCO6)cc4n3)n2)C[C@H](C)O1 [Compound 37]
BRG-1; ADP-Glo ATPase assay
  IC50: 85 nM
BRM; ADP-Glo ATPase assay
  IC50: 8.6 nM
BRM
  Ratio* (BRG1 IC50 (μM) divided by BRM IC50 (μM)): 9.89

## C[C@H]1CN(c2cccc(-c3ccc4cnc(CNC(=O)c5ccc6c(c5)S(=O)(=O)CCOC6)cc4n3)n2)CCO1 [Compound 223]
BRG-1; ADP-Glo ATPase assay
  IC50: 49.6 nM
BRM; ADP-Glo ATPase assay
  IC50: 6.9 nM
BRM
  Ratio* (BRG1 IC50 (μM) divided by BRM IC50 (μM)): 7.16

## COc1nn([C@H]2C[C@@H](F)C2)cc1-c1ccc2cnc(CNC(=O)c3ccc4c(c3)S(=O)(=O)CCOC4)cc2c1 [Compound 134]
BRG-1; ADP-Glo ATPase assay
  IC50: 2460 nM
BRM; ADP-Glo ATPase assay
  IC50: 186 nM
BRM
  Ratio* (BRG1 IC50 (μM) divided by BRM IC50 (μM)): 13.28

## O=C(NCc1cc2nc(N3CCOc4cc(F)c(C5CC5)nc43)ccc2cn1)c1ccc2c(c1)S(=O)(=O)CCOC2 [Compound 751]
BRG-1; ADP-Glo ATPase assay
  IC50: 2300 nM
BRM; ADP-Glo ATPase assay
  IC50: 36.2 nM
BRM; ratio BRG1 IC50 / BRM IC50
  Ratio*: 63.48

## O=C(NCc1cc2nc(N3CCOc4nc(C5CC5)ccc43)ccc2cn1)c1ccc2c(c1)S(=O)(=O)CCOC2 [Compound 843]
BRG-1; ADP-Glo ATPase assay
  IC50: 484 nM
BRM; ADP-Glo ATPase assay
  IC50: 56.2 nM
BRM; ratio BRG1 IC50 / BRM IC50
  Ratio*: 8.61

## COc1cncc2c1CCCN2c1ccc2cnc(CNC(=O)c3ccc4c(c3)S(=O)(=O)CCOC4)cc2n1 [Compound 761]
BRG-1; ADP-Glo ATPase assay
  IC50: 67.9 nM
BRM; ADP-Glo ATPase assay
  IC50: 8.7 nM
BRM; ratio BRG1 IC50 / BRM IC50
  Ratio*: 7.77

— patent publication US20230416248A1, “COMPOUNDS AND USES THEREOF” (Foghorn Therapeutics Inc., priority 2020, published 2023)
